Test results: patent publication US11246934B2, “Nanoparticles and methods for preparation thereof” (B.G. Negev Technologies & Applications Ltd. at Ben-Gurion …, priority 2015, dated 2022)
Counter-ions that a name gives are not always drawn.

What was measured:
[1] = test system: MCF-7 cells (cell line of breast cancer); assay: MTT cytotoxicity assay in MCF-7 cell line; assay type: cell-based; conditions: MCF-7, at 1 mg/ml
Protocol: The direct effect of curcumin and doxorubicin on the viability of cultured cells was assessed in vitro using the MCF-7 cells (cell line of breast cancer). […] Fresh cell medium was then prepared with test compounds in appropriate dilutions (equivalent to their concentrations as determined by HPLC). Cell growth after 48 h was assayed by MTT assay [3-(4,5-Dimethylthiazol-2-yl)-2,5-diphenyltetrazolium bromide, Sigma-Aldrich] and was evaluated by measuring the absorbance at 540 nm after 3 h of incubation in a medium containing 0.5 mg/ml MTT (Sunrise™ absorbance plate reader, TECAN). […] FIG. 13C presents dose response behavior of DOX-loaded and unloaded NPs vs. solutions at various concentrations after 24-h and 48-h incubation.

melanoma B16F0 cells = assay: B16F0 melanoma tumor model in mice; conditions: day 18 of treatment, 0.5 mg/kg s.c. twice a week
Protocol: Female C57BL/6 mice (5-6 weeks old, 14-18 g) were obtained from Harlan Laboratories Ltd (Jerusalem, Israel). Mice were housed under humidity- and temperature-controlled conditions, and the light/dark cycle was set at 12-h intervals.
B16F0 melanoma cells were maintained in RPMI 1640 medium supplemented with 10% bovine serum and 200 μM L-glutamine, 10 units/mL penicillin, and 10 μg/mL streptomycin (Biological Industries, Beth Ha'Emek, Israel). The cells were kept at 37° C. in a 5% CO2 humidified atmosphere.
The mice were inoculated with melanoma B16F0 cells (1×10^6) subcutaneously in the right flank of the mice. After tumors had been visualized a week later, the mice were weighed and measured for tumor size (244±213 mm^3), and were randomly sorted into three groups. […] Tumor volumes and mouse body weights were measured routinely before each treatment. Measurement of tumor size was performed with a caliper in two dimensions, and individual tumor volumes (V) were calculated by the formula: V=[length×(width)^2]×π/6.
The statistical differences between the therapeutic effects of different treatments on tumor growth were determined by two-tailed Student's test. […]

[2] = Dynamic dialysis of chloramphenicol, apparent dialysis bag permeability constant; assay type: physicochemical; conditions: dialysis bag 10K MWCO, NaCl 0.9% w/v
Protocol: The amount of drug released from the NPs was determined by a dynamic dialysis technique monitoring the drug concentration in the receiver solution (i.e., outer solution surrounding a dialysis bag). The method is based on the assumption that drug is first released from the NPs into the donor solution (i.e., the dissolution medium inside the dialysis bag). Subsequently, the drug can diffuse through the dialysis bag from the donor to the receiver.
A sample of 3 ml of the NP dispersion (1:1 diluted with saline) was introduced into a dialysis bag (SnakeSkin Dialysis Tubing, 10K MWCO, 22 mm, Thermo Fisher Scientific, Rockford, USA). The sample was dialyzed against 60 ml of saline solution (NaCl solution, 0.9%, w/v) for 7 hours. The receiver solution was agitated by magnetic stirring throughout the experimental procedure. Samples of 200 μl were withdrawn from the receiver solution at predetermined time intervals and their drug concentrations were measured by HPLC.
The apparent dialysis bag permeability constant (k′) was calculated according to the method described in ‘Materials and Methods’ section 2.6. […]

[3] = topically applied, eye drops; cited from earlier work

SMILES: COc1cccc2c1C(=O)c1c(O)c3c(c(O)c1C2=O)C[C@@](O)(C(=O)CO)C[C@@H]3O[C@H]1C[C@H](N)[C@H](O)[C@H](C)O1 [DOX-HCl solution, doxorubicin]
- cytotoxicity [1]: highly cytotoxic
- survival (melanoma B16F0 cells): 58%

SMILES: O=C(N[C@H](CO)[C@H](O)c1ccc([N+](=O)[O-])cc1)C(Cl)Cl [chloramphenicol]
- apparent permeability constant (k′) [2]: 1.207 ± 0.018 h⁻¹
- bioavailability [3]: 1-10%
- half-life [3]: 1.5 to 5 h
